The text below walks through data of paper PMC6381024, “Probing Anti-inflammatory Properties Independent of NF-κB Through Conformational Constraint of Peptide-Based Interleukin-1 Receptor Biased Ligands” (Frontiers in Chemistry, 2019).

In one assay the test system is retinal microglia. Description: Retinal microglial activation and density (Iba-1 staining) in the OIR model. In kind it is in vivo. Conditions: OIR rat pups, 2 mg/kg/day i.p.; for Effect on microglial activation / morphology: Iba-1 immunohistochemistry. From the text: On P5, litters were transferred to a controlled hyperoxic environment (Biospherix OxyCycler A84XOV) and maintained at 80 ± 1% O2, which is used to induce vaso-obliteration of the retinal vasculature. At this timepoint, the vasculature is immature and particularly susceptible to […] insults resulting in vaso-obliteration, a defining characteristic of the early stage of retinopathies in premature infants (Garner and Ashton, [1971]). Control litters were not exposed to hyperoxia and were kept in standard conditions with room air (21% O2). To control for the effects of hyperoxia on the lactation of the dams, dams of hyperoxic litters were switched with dams of control litters on P8.
In litters exposed to hyperoxia, pups were randomized to receive phosphate-buffered saline (PBS) vehicle, 2 mg/kg/day of peptides 1, 5, or 6 or 3 mg/kg/day of Kineret from P5 to P10. These doses were determined from our previous study (Rivera et al., [2013]) and administered in twice-daily intra-peritoneal injections titrated to 20 μL per injection with 28-gauge insulin syringes. A total of 6–8 pups were used for each treatment group.
Retinas were treated at room temperature for 1 h with a blocking solution consisting of 1% bovine serum albumin (BSA), 1% normal goat serum, 0.1% Triton X-100 and 0.05% Tween-20 in PBS. The retinas were then double-labeled overnight at 4°C with gentle shaking in an antibody solution consisting of 1 mM CaCl2, 1% Triton X-100, 1% TRITC-conjugated lectin cell endothelial marker from Bandeiraea simplicifolia (Sigma-Aldrich, St Louis, MO) and a 1:500 dilution of rabbit anti-ionized calcium-binding adapter molecule (Iba)-1 antibody (Wako Chemicals USA) in PBS. The retinas were then washed thrice with PBS and incubated with a secondary antibody solution consisting of 1% BSA, 0.1% Triton X-100, 0.05% Tween-20 and 1:500 Alexa-594-conjugated donkey anti-rabbit IgG (ThermoFisher Scientific, Rockford, IL) in PBS for 2 h at room temperature. Retinas were washed thrice with PBS and then flat-mounted onto glass slides with coverslips and Fluoro-Gel mounting medium (Electron Microscopy Sciences, Hatfield, PA).
For assessment of vaso-obliteration, retinas were imaged using an epifluorescence microscope at 10X magnification (Zeiss AxioImager Z2) and version 4.8 of the AxioVision software. Images were captured and stitched together using the software's MosaiX feature. Iba-1 staining was assessed with the same microscope at 20X magnification, and a total of 4 fields per retina were imaged halfway between the optic nerve and the edge of the retina.
Representative images of Iba-1 staining were taken using a laser scanning confocal microscope (Olympus IX81 with Fluoview FV1000 Scanhead) with the Fluoview Software at 30X magnification.
The FIJI software was used to the quantify the area of vaso-obliteration in each retina, expressed as a percentage of the area of the whole retina. The number of Iba-1-positive cells was counted using the cell counter plug-in in FIJI, and the average of cell counts in 4 fields per retina was calculated.
Figure 11 The effects of peptides 1, 5, and 6 on retinal microglial activation and density. Retinas were obtained for immunohistochemistry from rat pups treated with the OIR protocol, and incubated with rabbit anti-iba-1 antibody, followed by donkey anti-rabbit antibody conjugated to Alexa 594. (A) Representative confocal images of retinal microglia at 30X magnification: scale bar 100 μm. (B) Epifluorescence microscopy images at 20 × magnification of retinal microglial density quantified using ImageJ: 4 images per retina were taken at a distance halfway between the optic nerve and the peripheral edge of the retina; n = 5–7 for peptide 1, 5, and 6, and Kineret; n = 8–10 for normoxia and vehicle; ^*p < 0.05, ^****p < 0.0001 relative to the vehicle group. Treatment groups that are not labeled with asterisks are statistically non-significant compared to the vehicle group.

For assay [1], the system named is thymocyte TF-1 proliferation. The note with it: ref Jamieson et al., 2009; Boutard et al., 2011; cited from earlier work. From the text:
Conformational restriction of natural peptides has been used to identify active geometry and to enhance therapeutic potential by mitigating issues such as low oral availability and poor metabolic stability (Carney et al., [2014]; Rubin and Qvit, [2016]; Lubell, [2017]). Since pioneering studies by Freidinger and Veber, the application of Agl residues has proven effective for constraining the backbone sequence to favor β-turn geometry in various peptides (Freidinger et al., [1980], [1982]; Yu et al., [1988]; Zhang et al., [1996]; Aube, [1999]; Perdih and Kikelj, [2006]; Valle et al., [2009]). I ...

Turning to “H-D-Arg-D-Tyr-D-Thr-D-Val-D-Glu-D-Leu-D-Ala-NH2 [Peptide 1]”, in the assay with retinal microglia, the “Effect on microglial activation / morphology” value is “inactive and ramified”. On the same count and under the same terms, for “H-D-Arg-D-Tyr-(3R,4S)-Hgl-D-Val-D-Glu-D-Leu-D-Ala-NH2 [[(3R,4S)-Hgl^3]-1]” the value was “prevented partially the activation of microglia”. As for “H-D-Arg-D-Tyr-(3S,4R)-Hgl-D-Val-D-Glu-D-Leu-D-Ala-NH2 [[(3S,4R)-Hgl^3]-1]”, the “Effect on microglial activation / morphology” value with retinal microglia is recorded as “prevented partially the activation of microglia”.

Take “H-D-Arg-D-Tyr-(R)-Agl-D-Val-D-Glu-D-Leu-D-Ala-NH2 [[(3R)-Agl^3]-1]”: in assay [1], the “Inhibition of IL-1β-induced thymocyte TF-1 proliferation, compared to peptide 1” value was “significantly diminished activity”. Besides, the “Effect on microglial activation / morphology” value with retinal microglia is listed as “no appreciable effect on microglial morphology”.

In the case of “H-D-Arg-D-Tyr-(S)-Agl-D-Val-D-Glu-D-Leu-D-Ala-NH2 [[(3S)-Agl^3]-1]”, in the assay on retinal microglia (Iba-1-positive cell counts), the “Reduction of microglial density” value is less than 20%. The “Effect on microglial activation / morphology” value with retinal microglia is recorded as “no appreciable effect on microglial morphology”.
